# Test results as given in paper PMC5874726, “Comparison Study of Two Differently Clicked ^18F-Folates—Lipophilicity Plays a Key Role” (Pharmaceuticals, 2018).
# Tests used:
# FR-negative OC316 cells = experiment: Internalization studies in FR-negative OC316 cells; type: cell-based, human; conditions: blocked KB cells and FR-negative OC316 cells
# Experimental: Two different temperatures (4 °C for receptor binding, 37 °C for receptor binding and internalization) and two different concentrations were assessed. […] Both radiofolates show a concentration as well as temperature depended increase of activity in the FR positive cells. […] This effect is not fully understood, but we presume the high lipophilicity in combination with the increased concentration being responsible for this high non-specific binding. […] Thus, about 90% of ^18F-DBCO-folate remained in solution, which is ideal for such a radiotracer assay set-up (see supporting information for pie chart of activity distribution, Figure S6). For ^18F-Ala-folate the overall receptor-bound and internalized fractions are similar to ^18F-DBCO-folate (see supporting information for pie chart of activity distribution, Figure S7).
# As folate-receptor positive control, KB cells (derived from human cervical carcinoma; obtained from German Collection of Microorganisms and Cell Cultures), and OC316 cells (derived from human ovarian adenocarcinoma) as negative control were used. For FACS analysis, data of both cell lines see supporting information Figure S5. The cells were cultured in folate deficient RPMI 1640 medium containing 10% FCS, 1% penicillin-streptomycin and HEPES buffer (10 mM, 5 mL) grown at 37 °C in a humidified atmosphere containing 5% CO2. […]
# healthy balb/c mice = experiment: Ex vivo biodistribution in healthy balb/c mice; conditions: Balb/c, mouse, in vivo, 60 min
# Text: (§1) All animal experiments were approved by the local ethical committee (permission no. 23177-07/G15-1-033). Balb/c and balb/c nude (Balb/c AnNRj-Foxn1nu) mice were kept on a folate-deficient rodent diet to reduce their blood level of folate to one found in humans. After 7 days of acclimatization, human KB tumor cells (2.5 x 10^6 cells in PBS) were inoculated in the right shoulder of each balb/c nude mouse. All in vivo treatments and imaging experiments were done under isoflurane anesthesia. Eleven or twelve days after inoculation, animals were intravenously injected with ^18F-DBCO-Folate and ^18F-Ala-Folate (5–8 MBq, 100–200 µL) via a lateral tail vein. […] PET/MRI-studies were performed on a nanoScan PET/MRI (Mediso, Budapest, Hungary). First MRI scans (Material Map for co-registration of the PET scan; 3D; GRE-EXT, FOV; slice thickness: 0.6 mm; TE: 2 ms; TR: 15 ms; flip angle: 25 deg) were acquired and then either a dynamic scan over 60 min starting with injection of the radiotracer or a static scan for 10 min after 50 min p.i. were performed. All mice, which underwent ex vivo biodistribution, were scanned first. Afterwards co-registered PET/MR images were analyzed via PMOD (version 3.6) and Inveon Research Workplace (version 4.2). For ex vivo biodistribution studies mice were euthanized 60 min p.i. and organs of interest were dissected, weighed, and measured in a γ-counter (PerkinElmer 2470 Wizard2, Perkin Elmer, Rodgau, Germany). The incorporated radioactivity was expressed as percentage of injected dose per gram of tissue (% ID/g).
# KB-tumor bearing mice = experiment: Ex vivo biodistribution in KB-tumor bearing mice
# Text: as §1
# KB tumor-bearing mice = experiment: µPET imaging in KB tumor-bearing mice; type: in vivo, mouse; conditions: static scan 50-60 min p.i.
# Text: as §1
# [1] = balb/c nude (Balb/c AnNRj-Foxn1nu), mouse, in vivo, 60 min
structure (smiles),measurement,setting,value
Nc1nc2ncc(CNc3ccc(C(=O)NC(CCC(=O)NCCOCCOCCOCCn4cc(CNC(C[18F])C(=O)O)nn4)C(=O)O)cc3)nc2c(=O)[nH]1 (centres unmarked) [^18F-Ala-folate],non-specific binding,FR-negative OC316 cells,lower non-specific binding
same,uptake Appendix,healthy balb/c mice,0.20 ± 0.11 %ID/g tissue
same,uptake Blood,healthy balb/c mice,0.29 ± 0.29 %ID/g tissue
same,uptake Heart,healthy balb/c mice,0.32 ± 0.21 %ID/g tissue
same,uptake Inguinal lymph nodes,healthy balb/c mice,0.93 ± 0.67 %ID/g tissue
same,uptake Intestines (empty),healthy balb/c mice,1.67 ± 1.12 %ID/g tissue
same,uptake Left kidney,healthy balb/c mice,19.90 ± 8.63 %ID/g tissue
same,uptake Liver,healthy balb/c mice,1.51 ± 1.26 %ID/g tissue
same,uptake Lung,healthy balb/c mice,0.36 ± 0.16 %ID/g tissue
same,uptake Muscle,healthy balb/c mice,0.26 ± 0.13 %ID/g tissue
same,uptake Pancreas,healthy balb/c mice,0.33 ± 0.20 %ID/g tissue
same,uptake Right kidney,healthy balb/c mice,20.55 ± 9.71 %ID/g tissue
same,uptake Spleen,healthy balb/c mice,0.15 ± 0.09 %ID/g tissue
same,uptake Stomach (empty),healthy balb/c mice,0.71 ± 0.24 %ID/g tissue
same,tumor/blood ratio,KB-tumor bearing mice; 60 min p.i.,10.11
same,tumor/kidney ratio,KB-tumor bearing mice; 60 min p.i.,0.12
same,tumor/muscle ratio,KB-tumor bearing mice; 60 min p.i.,7.64
same,reduction of activity in the tumor in the blocked group,KB-tumor bearing mice; [1],85%
same,tumor uptake relative to ^18F-DBCO-folate,KB-tumor bearing mice; [1],3 times
same,uptake Appendix,KB-tumor bearing mice; [1],0.39 ± 0.22 %ID/g tissue
same,uptake Blood,KB-tumor bearing mice; [1],0.17 ± 0.05 %ID/g tissue
same,uptake Heart,KB-tumor bearing mice; [1],0.22 ± 0.09 %ID/g tissue
same,uptake Inguinal lymph nodes,KB-tumor bearing mice; [1],0.57 ± 0.15 %ID/g tissue
same,uptake Intestines (empty),KB-tumor bearing mice; [1],3.42 ± 2.18 %ID/g tissue
same,uptake Left kidney,KB-tumor bearing mice; [1],14.49 ± 3.42 %ID/g tissue
same,uptake Liver,KB-tumor bearing mice; [1],1.71 ± 1.02 %ID/g tissue
same,uptake Lung,KB-tumor bearing mice; [1],0.28 ± 0.05 %ID/g tissue
same,uptake Muscle,KB-tumor bearing mice; [1],0.22 ± 0.02 %ID/g tissue
same,uptake Pancreas,KB-tumor bearing mice; [1],0.26 ± 0.11 %ID/g tissue
same,uptake Right kidney,KB-tumor bearing mice; [1],14.27 ± 3.35 %ID/g tissue
same,uptake Spleen,KB-tumor bearing mice; [1],0.16 ± 0.04 %ID/g tissue
same,uptake Stomach (empty),KB-tumor bearing mice; [1],0.95 ± 0.50 %ID/g tissue
same,uptake Tumor,KB-tumor bearing mice; [1],1.68 ± 0.13 %ID/g tissue
same,tumor/liver ratio,"KB-tumor bearing mice; liver including gallbladder, 60 min p.i.",0.98
same,visualization of KB tumors in maximum intensity projection (MIP) PET images,KB tumor-bearing mice,displayed the KB-tumor in the MIP
